# Target: T1, BTK kinase (Homo sapiens, UniProt Q06187)
# T1 construct: purchased Invitrogen PR5442A
# Assay: Assay of inhibition activity of BTK in vitro (HTRF kit, read on Envision)
# Assay type: biochemical
# Settings: 1.0 nM BTK, 1 μM biotin-TK1 peptide, 20 μM ATP, 23° C., tested by Envision; read-out: BTK IC50
# Description: Assay of Inhibition Activity of BTK In Vitro
# The inhibition of compounds on BTK kinase was evaluated by […] detected by Envision, using the IC50 value of the compounds as index.
# BTK kinase: Invitrogen-PR5442A
# HTRF Assay Kit: Cisbio-62TKOPEJ
# Plate for compound preparation: Greiner-781280
# Cisbio HTRF Kit: Cisbio-62TKOPEJ
# Centrifuge: Eppendorf-5810R
# Bravo: Agilent Technologies-Bravo
# Gradient Dilution of Compounds: […]
# The test compound was dissolved with DMSO to be of 1 mM as a stock solution. Such a stock solution was diluted with DMSO by 10-fold, thereby obtaining an initial solution in a concentration of […] which was added into wells at the second column in a plate. 20 μL DMSO was added to other wells using Bravo. Then, 10 μL of the initial solution was transferred from wells at the second column to wells at the third column, followed by mixing obtained solution in the wells at the third column, thereby obtain a first diluted solution in a concentration of 1/3 μM. Subsequently, 10 μL of the first diluted solution was further transferred from wells at the third column to wells at the fourth column, followed by mixing obtained solution in the wells at the fourth column, thereby obtain a second diluted solution in a concentration of 1/9 μM. Such a three-fold serial dilution was performed 10 times, with 11 solutions in series diluted concentrations and a final diluted solution in a concentration of 0.017 nM obtained.
# All diluted solutions were further diluted by 25-fold with ultrapure water, thus obtain test solutions, which were equilibrated at r.t. for 30 min before use.
# To 2.5 μL of test solution, which was pipetted into each well of Assay plate using Bravo, 5 μL kinase mixture was added using the multi-channel pipettor. The mixture was centrifuged at 1000 rpm for 20 s, followed by incubation at 23° C. for 30 min. The reaction was initiated by 2.5 μL ATP mixture which was pipetted into the wells by Multidrop.
# The reaction mixture of BTK kinase (10 μL) included 1.0 nM BTK, 1 μM biotin-TK1 peptide and 20 μM ATP. The reaction buffer included 50 mM Hepes (pH7.5), 10 mM MgCl2 and 0.01 mM […]. The kinase mixture was reacted in incubator at 23° C. for 90 mim.
# The reaction was stopped by adding 10 μL Detection Reagent to each well of Assay plate, and the plate was left in incubator at 23° C. for 1 h before read on Envision.
# Data analysis: The IC50 values of compounds were calculated using Excel fit.
# T1 sequence (Q06187 whole entry): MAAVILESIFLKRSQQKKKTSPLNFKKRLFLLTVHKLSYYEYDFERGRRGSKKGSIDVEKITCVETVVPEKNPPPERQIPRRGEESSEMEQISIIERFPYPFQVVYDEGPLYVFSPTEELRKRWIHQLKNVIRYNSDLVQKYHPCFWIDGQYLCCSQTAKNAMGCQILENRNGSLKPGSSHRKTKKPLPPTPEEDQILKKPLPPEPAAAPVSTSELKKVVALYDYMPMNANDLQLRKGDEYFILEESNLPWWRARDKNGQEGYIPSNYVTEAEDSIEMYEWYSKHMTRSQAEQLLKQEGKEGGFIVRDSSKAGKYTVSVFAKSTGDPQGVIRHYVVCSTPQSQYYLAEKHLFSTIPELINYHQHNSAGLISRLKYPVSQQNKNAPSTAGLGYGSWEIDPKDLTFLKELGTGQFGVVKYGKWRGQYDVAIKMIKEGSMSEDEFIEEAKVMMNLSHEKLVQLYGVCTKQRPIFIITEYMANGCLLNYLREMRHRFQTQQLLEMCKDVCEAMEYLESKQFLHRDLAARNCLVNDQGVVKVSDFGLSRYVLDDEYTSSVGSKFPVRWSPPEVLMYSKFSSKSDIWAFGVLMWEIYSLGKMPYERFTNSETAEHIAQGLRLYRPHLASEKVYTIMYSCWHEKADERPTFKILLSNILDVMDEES
row,SMILES,IC50
1,C=CC(=O)NC1CCCC(n2nc(-c3ccc(Oc4ccccc4)cc3)c3c(N)n[nH]c(=O)c32)C1 (stereo not shown) [Example 62],< 100 nM
2,CN(C)C/C=C/C(=O)N[C@H]1CC[C@@H](n2nc(-c3ccc(Oc4ccccn4)cc3)c3c(N)n[nH]c(=O)c32)CC1 [Example 64],100 to 1000 nM
3,C=CC(=O)N[C@H]1CC[C@@H](n2nc(-c3ccc(Oc4ccccn4)cc3)c3c(N)n[nH]c(=O)c32)CC1 [Example 65],< 100 nM
4,C=CC(=O)N1CCCC(n2nc(-c3ccc(Oc4ccccn4)cc3)c3c(N)n[nH]c(=O)c32)C1 (stereo not shown) [Example 68],< 100 nM
5,C=CC(=O)N1CCCC(n2nc(-c3ccc(Oc4ccccc4F)cc3)c3c(N)n[nH]c(=O)c32)C1 (stereo not shown) [Example 71],< 100 nM
6,C=CC(=O)N1CCCC(n2nc(-c3ccc(Oc4ccccc4)nc3)c3c(N)n[nH]c(=O)c32)C1 (stereo not shown) [Example 72],< 100 nM
7,CN(C)C/C=C/C(=O)N1CCC[C@@H](n2nc(-c3ccc(OC4Cc5ccccc5C4)cc3)c3c(N)n[nH]c(=O)c32)C1 [Example 75],< 100 nM
8,C=CS(=O)(=O)N1CCC[C@@H](n2nc(-c3ccc(Oc4ccccc4)cc3)c3c(N)n[nH]c(=O)c32)C1 [Example 77],< 100 nM
9,C=CC(=O)N1CCC[C@@H](n2nc(-c3ccc(OC4CCCC4)cc3)c3c(N)n[nH]c(=O)c32)C1 [Example 79],< 100 nM
10,C=CC(=O)N1CCC[C@@H](n2nc(-c3ccc(OC4CCCCC4)cc3)c3c(N)n[nH]c(=O)c32)C1 [Example 80],< 100 nM
11,C=CC(=O)N(C)[C@H]1CC[C@@H](n2nc(-c3ccc(Oc4ccccc4)cc3)c3c(N)n[nH]c(=O)c32)CC1 [Example 82],< 100 nM
12,C=CC(=O)N[C@H]1CC[C@@H](n2nc(-c3ccc(Oc4ccccc4F)cc3)c3c(N)n[nH]c(=O)c32)CC1 [Example 83],< 100 nM
13,C=CC(=O)N1CCCC(n2nc(-c3ccc(Oc4ccccc4)cc3)c3c(N)nn(C)c(=O)c32)C1 (stereo not shown) [Example 85],100 to 1000 nM
14,C=CC(=O)N1CCCC(n2nc(-c3ccc(Oc4ccccc4)cc3)c3c(N)nn(CC)c(=O)c32)C1 (stereo not shown) [Example 86],1000 to 10000 nM
15,C=CC(=O)N1CCC[C@@H](n2nc(-c3ccc(-c4nc5ccccc5o4)cc3)c3c(N)n[nH]c(=O)c32)C1 [Example 88],< 100 nM
16,C=CC(=O)N1CCC[C@@H](n2nc(-c3ccc(Oc4cc(C)ccn4)cc3)c3c(N)n[nH]c(=O)c32)C1 [Example 89],< 100 nM
17,C=CC(=O)N1CCC[C@@H](n2nc(-c3ccc(Oc4ccc(C)nn4)cc3)c3c(N)n[nH]c(=O)c32)C1 [Example 90],100 to 1000 nM
18,C=CC(=O)N1CCC[C@@H](n2nc(-c3ccc(Oc4cccc(C)n4)cc3)c3c(N)n[nH]c(=O)c32)C1 [Example 92],< 100 nM
19,C=CC(=O)N1CCC[C@@H](n2nc(-c3ccc(Oc4ncccc4C)cc3)c3c(N)n[nH]c(=O)c32)C1 [Example 93],< 100 nM

# Other lines, results leading:
row,IC50,SMILES
1,< 100 nM,C=CC(=O)N[C@H]1CC[C@H](n2nc(-c3ccc(Oc4ccccc4)cc3)c3c(N)n[nH]c(=O)c32)CC1 [Example 63]
2,< 100 nM,C=CC(=O)N1CCC[C@@H](n2nc(-c3ccc(C(=O)N4CCCC4)cc3)c3c(N)n[nH]c(=O)c32)C1 [Example 66]
3,1000 to 10000 nM,C=CC(=O)N1CCCC(n2nc(-c3ccc(Oc4cccc(C)c4)cc3)c3c(N)n[nH]c(=O)c32)C1 (stereo not shown) [Example 67]
4,< 100 nM,C=CC(=O)Nc1cccc(-n2nc3c(=O)[nH]nc(N)c3c2-c2ccc(Oc3ccccc3)cc2)c1 [Example 69]
5,1000 to 10000 nM,C=CC(=O)N1CCCC(n2nc(-c3ccc(Oc4ccccc4)cc3)c3c(N)noc(=O)c32)C1 (stereo not shown) [Example 70]
6,< 100 nM,C=CC(=O)N1CC(n2nc(-c3ccc(Oc4ccccc4)cc3)c3c(N)n[nH]c(=O)c32)C1 [Example 73]
7,< 100 nM,C=CC(=O)N1CCC[C@@H](n2nc(-c3ccc(OC4Cc5ccccc5C4)cc3)c3c(N)n[nH]c(=O)c32)C1 [Example 74]
8,< 100 nM,N#CC(=CC1CC1)C(=O)N1CCC[C@@H](n2nc(-c3ccc(Oc4ccccc4)cc3)c3c(N)n[nH]c(=O)c32)C1 [Example 76]
9,100 to 1000 nM,C=CC(=O)N1CCCC(c2c3c(=O)[nH]nc(N)c3nn2-c2ccc(Oc3ccccc3)cc2)C1 (stereo not shown) [Example 78]
10,< 100 nM,CN(C)C/C=C/C(=O)N1CCC[C@@H](n2nc(-c3ccc(Oc4ccccc4)cc3)c3c(N)n[nH]c(=O)c32)C1 [Example 81]
11,< 100 nM,CN(C)/C=C/CC(=O)N1CCCC(n2nc(-c3ccc(Oc4ccccc4)cc3)c3c(N)n[nH]c(=O)c32)C1 (stereo not shown) [Example 84]
12,1000 to 10000 nM,C=CC(=O)N1CCCC(n2nc(-c3ccc(Oc4ccccc4)cc3)c3c(N)nn(CC(F)(F)F)c(=O)c32)C1 (stereo not shown) [Example 87]
13,< 100 nM,C=CC(=O)N1CCC[C@@H](n2nc(-c3ccc(Oc4ccc(C)cn4)cc3)c3c(N)n[nH]c(=O)c32)C1 [Example 91]
14,1000 to 10000 nM,C=CC(=O)N1CCCC(n2nc(-c3ccc(Oc4ccccc4)cc3)c3cc4c(N)noc4cc32)C1 (stereo not shown) [Example 107]
15,1000 to 10000 nM,C=CC(=O)N1CCCC(n2nc(-c3ccc(Oc4ccccc4)cc3)c3cc4c(N)ncnc4cc32)C1 (stereo not shown) [Example 108]

# — patent US10662174B2, “BTK inhibitor” (Hubei Bio-Pharmaceutical Industrial Technological Institute …, priority 2015, dated 2020)
